Data: EPA's ToxValDB 9.5 (doi:10.2903/j.efsa.2014.3736)
Values after ≈ are worked out from the molar mass of the structure shown.

Legend:
[1] = short-term; duration: 28 days; no effects
[2] = tested on: Anas platyrhynchos; conditions: reproductive
[3] = tested on: Bibionidae; conditions: chronic/long-term; duration: 23 days; other
[4] = tested on: Colinus virginianus; conditions: acute, oral, mortality
[5] = tested on: Daphnia magna; conditions: chronic/long-term; duration: 21 days; mortality
[6] = tested on: Oncorhynchus mykiss
[7] = tested on: Plant; conditions: chronic/long-term; duration: 28 days; frond number
[8] = tested on: Rattus norvegicus
[9] = tested on: Tagia sp.; conditions: acute; duration: 14 days; mortality

Question: Which NOEC [1] does the source give for C#CCN1C(=O)COc2cc(F)c(N3C(=O)C4=C(CCCC4)C3=O)cc21 [Flumioxazin] here?
Answer: The NOEC was 0.15 mg/L.

Question: And the NOEL [2]?
Answer: The NOEL was 34.3 mg/kg-day.

Question: What about the NOEC [3] of the same molecule?
Answer: The NOEC was 0.73 mg/kg.

Question: And the LD50 ([4]; diet)?
Answer: Its LD50 is over 1510 mg/kg-day.

Question: What about the LD50 [4] of the same molecule?
Answer: The LD50 was over 2250 mg/kg-day.

Question: What about the NOEC [5] of the same molecule?
Answer: The NOEC was 0.1 mg/L.

Question: What about the LC50 ([6]; acute, duration: 96 hours, mortality) of the same molecule?
Answer: Its LC50 is 2.3 µg/mL (≈ 6.49 µM).

Question: What about the NOEC ([6]; chronic/long-term, duration: 21 days, growth) of the same molecule?
Answer: The NOEC was 0.37 mg/L.

Question: What about the NOEC [7] of the same molecule?
Answer: Its NOEC is 6.3 µg/L.

Question: And the LD50 ([8]; acute, mortality)?
Answer: The LD50 was over 5000 mg/kg-day.

Question: And the NOAEL ([8]; chronic, duration: 2 years, hematological)?
Answer: Its NOAEL is 1.8 mg/kg-day.

Question: And the NOAEL ([8]; developmental, oral, gavage, development)?
Answer: Its NOAEL is 10 mg/kg-day.

Question: And the NOAEL ([8]; reproduction developmental, growth)?
Answer: Its NOAEL is 7.5 mg/kg-day.

Question: What about the NOAEL ([8]; subchronic, duration: 90 days, oral, hematological) of the same molecule?
Answer: Its NOAEL is 2.2 mg/kg-day.

Question: And the LC50 [9]?
Answer: Its LC50 is over 982 mg/kg.
